Test results reported in US20100029752A1, “NOVEL COMPOUNDS, PHARMACEUTICAL COMPOSITIONS CONTAINING SAME, AND METHODS OF USE FOR SAME” (priority 2005, published 2010).
In brackets after ≈: the same amount, converted by molar mass.

Key:
[1] = test system: MCF-7 human breast cancer cells; assay: XTT cytotoxicity assay (M / MCF7); type: cell-based; settings: MCF-7 cells, 72 hours
Experimental: The XTT assay is a non-radioactive alternative for the [^51Cr] release cytotoxicity assay. XTT is a tetrazolium salt that is reduced to a formazan dye only by metabolically active, viable cells. The reduction of XTT is measured spectrophotometrically as OD490-OD650. To measure the cytotoxicity of specific compounds against cancer cells, 9×10^3 MCF-7 human breast cancer cells, obtained from the American Type Culture Collection are plated per well in 96 well plates in DMEM medium with 10% fetal bovine serum, insulin, penicillin, and streptomycin. Following overnight culture at 37° C. and 5% CO2, the compounds to be tested, dissolved in DMSO, are added to the wells in 1 μl volume at the following concentrations: 80, 40, 20, 10, 5, 2.5, 1.25, and 0.625 μg/ml in triplicate. Additional concentrations are tested if required. 1 μl of DMSO is added to triplicate wells are the vehicle control. C75 is run at 40, 20, […], and 5 μg/ml in triplicate as positive controls. After 72 hours of incubation, cells are incubated for 4 hours with the XTT reagent as per manufacturer's instructions (Cell Proliferation Kit 11 (XTT) Roche). Plates are read at OD490 and OD650 on a Molecular Devices SpectraMax Plus Spectrophotometer. Three wells containing the XTT reagent without cells serve as the plate blank. XTT data are reported as OD490-OD650. Averages and standard error of the mean are computed using SOFTmax Pro software ([…]). The IC50 for the compounds is defined as the concentration of drug leading to a 50% reduction in OD490-OD650 compared to controls. The OD490-OD650 are computed by the SOFTmax PRO software (Molecular Devices) for each compound concentration. IC50 is calculated by linear regression, plotting the FAS activity as percent of control versus drug concentrations. Linear regression, best-fit line, r^2, and 95% confidence intervals are determined using Prism Version 3.0 (Graph Pad Software).

purified human FAS = biological target: T1, purified human FAS (Homo sapiens, UniProt P49327); assay: FAS enzymatic activity (malonyl-CoA dependent NADPH oxidation); type: biochemical; settings: purified FAS from ZR-75-1 cells, OD340
T1 construct: Human FAS was purified from cultured ZR-75-1 human breast cancer cells obtained from the American Type Culture Collection; endogenous in cells; host or cells: ZR-75-1 human breast cancer cells (ATCC); enzyme purified by PEG precipitation and Mono Q chromatography
Experimental: Human FAS was purified from cultured ZR-75-1 human breast cancer cells obtained from the American Type Culture Collection. The procedure, adapted from Linn et al., 1981, and Kuhajda et al., 1994, utilizes hypotonic lysis, successive polyethyleneglycol (PEG) precipitations, and anion exchange chromatography. ZR-75-1 cells are cultured at 37° C. with 5% CO2 in RPMI culture medium with 10% fetal bovine serum, penicillin and streptomycin.
Ten T150 flasks of confluent cells are lysed with 1.5 ml lysis buffer (20 mM Tris-HCl, pH 7.5, 1 mM EDTA, 0.1 mM phenylmethanesulfonyl fluoride (PMSF), 0.1% Igepal CA-630) and dounce homogenized on ice for 20 strokes. The lysate is centrifuged in JA-20 rotor (Beckman) at 20,000 rpm for 30 minutes at 4° C. and the supernatant is brought to 42 ml with lysis buffer. A solution of 50% PEG 8000 in lysis buffer is added slowly to the supernatant to a final concentration of 7.5%. After rocking for 60 minutes at 4° C., the solution is centrifuged in JA-20 rotor (Beckman) at 15,000 rpm for 30 minutes at 4° C. Solid PEG 8000 is then added to the supernatant to a final concentration of 15%. After the rocking and centrifugation is repeated as above, the pellet is resuspended overnight at 4° C. in 10 ml of Buffer A (20 mM K2HPO4, pH 7.4). After […] filtration, the protein solution is applied to a Mono Q 5/5 anion exchange column (Pharmacia). The column is washed for 15 minutes with buffer A at 1 ml/minute, and bound material is eluted with a linear 60-ml gradient over 60 minutes to 1 M KCl. FAS (MW˜270 kD) typically elutes at 0.25 M KCl in three 0.5 ml fractions identified using 4-15% SDS-PAGE with Coomassie G250 stain (Bio-Rad). FAS protein concentration is determined using the Coomassie Plus Protein Assay Reagent (Pierce) according to manufacturer's specifications using BSA as a standard. This procedure results in substantially pure preparations of FAS (>95%) as judged by Coomassie-stained gels.
FAS activity is measured by monitoring the malonyl-CoA dependent oxidation of NADPH spectrophotometrically at OD340 in 96-well plates (Dils et al and Arslanian et al, 1975). Each well contains 2 μg purified FAS, 100 mM K2HPO4, pH 6.5, 1 mM dithiothreitol (Sigma), and 187.5 μM β-NADPH (Sigma). Stock solutions of inhibitors are prepared in DMSO at 2, 1, and 0.5 mg/ml resulting in final concentrations of 20, 10, and 5 μg/ml when 1 μl of stock is added per well. For each experiment, cerulenin (Sigma) is run as a positive control along with DMSO controls, inhibitors, and blanks (no FAS enzyme) all in duplicate.
The assay is performed on a Molecular Devices SpectraMax Plus Spectrophotometer. The plate containing FAS, buffers, inhibitors, and controls are placed in the spectrophotometer heated to 37° C. Using the kinetic protocol, the wells are blanked on duplicate wells containing 100 μl of 100 mM K2HPO4, pH 6.5 and the plate is read at OD340 at 10 sec intervals for 5 minutes to measure any malonyl-CoA independent oxidation of NADPH. The plate is removed from the spectrophotometer and malonyl-CoA (67.4 μM, final concentration per well) and […] (61.8 μM, final concentration per well) are added to each well except to the blanks. The plate is read again as above with the kinetic protocol to measure the malonyl-CoA dependent NADPH oxidation. The difference between the ΔOD340 for the malonyl-CoA dependent and non-malonyl-CoA dependent NADPH oxidation is the specific FAS activity. Because of the purity of the FAS preparation, non-malonyl-CoA dependent NADPH oxidation is negligible.
The concentration of compound yielding 50% inhibition of FAS is the IC50. Graphs of ΔOD340 versus time are plotted by the SOFTmax PRO software (Molecular Devices) for each compound concentration. Computation of linear regression, best-fit line, r^2, and 95% confidence intervals are calculated using Prism Version 3.0 (Graph Pad Software).

T1 sequence (P49327 whole entry): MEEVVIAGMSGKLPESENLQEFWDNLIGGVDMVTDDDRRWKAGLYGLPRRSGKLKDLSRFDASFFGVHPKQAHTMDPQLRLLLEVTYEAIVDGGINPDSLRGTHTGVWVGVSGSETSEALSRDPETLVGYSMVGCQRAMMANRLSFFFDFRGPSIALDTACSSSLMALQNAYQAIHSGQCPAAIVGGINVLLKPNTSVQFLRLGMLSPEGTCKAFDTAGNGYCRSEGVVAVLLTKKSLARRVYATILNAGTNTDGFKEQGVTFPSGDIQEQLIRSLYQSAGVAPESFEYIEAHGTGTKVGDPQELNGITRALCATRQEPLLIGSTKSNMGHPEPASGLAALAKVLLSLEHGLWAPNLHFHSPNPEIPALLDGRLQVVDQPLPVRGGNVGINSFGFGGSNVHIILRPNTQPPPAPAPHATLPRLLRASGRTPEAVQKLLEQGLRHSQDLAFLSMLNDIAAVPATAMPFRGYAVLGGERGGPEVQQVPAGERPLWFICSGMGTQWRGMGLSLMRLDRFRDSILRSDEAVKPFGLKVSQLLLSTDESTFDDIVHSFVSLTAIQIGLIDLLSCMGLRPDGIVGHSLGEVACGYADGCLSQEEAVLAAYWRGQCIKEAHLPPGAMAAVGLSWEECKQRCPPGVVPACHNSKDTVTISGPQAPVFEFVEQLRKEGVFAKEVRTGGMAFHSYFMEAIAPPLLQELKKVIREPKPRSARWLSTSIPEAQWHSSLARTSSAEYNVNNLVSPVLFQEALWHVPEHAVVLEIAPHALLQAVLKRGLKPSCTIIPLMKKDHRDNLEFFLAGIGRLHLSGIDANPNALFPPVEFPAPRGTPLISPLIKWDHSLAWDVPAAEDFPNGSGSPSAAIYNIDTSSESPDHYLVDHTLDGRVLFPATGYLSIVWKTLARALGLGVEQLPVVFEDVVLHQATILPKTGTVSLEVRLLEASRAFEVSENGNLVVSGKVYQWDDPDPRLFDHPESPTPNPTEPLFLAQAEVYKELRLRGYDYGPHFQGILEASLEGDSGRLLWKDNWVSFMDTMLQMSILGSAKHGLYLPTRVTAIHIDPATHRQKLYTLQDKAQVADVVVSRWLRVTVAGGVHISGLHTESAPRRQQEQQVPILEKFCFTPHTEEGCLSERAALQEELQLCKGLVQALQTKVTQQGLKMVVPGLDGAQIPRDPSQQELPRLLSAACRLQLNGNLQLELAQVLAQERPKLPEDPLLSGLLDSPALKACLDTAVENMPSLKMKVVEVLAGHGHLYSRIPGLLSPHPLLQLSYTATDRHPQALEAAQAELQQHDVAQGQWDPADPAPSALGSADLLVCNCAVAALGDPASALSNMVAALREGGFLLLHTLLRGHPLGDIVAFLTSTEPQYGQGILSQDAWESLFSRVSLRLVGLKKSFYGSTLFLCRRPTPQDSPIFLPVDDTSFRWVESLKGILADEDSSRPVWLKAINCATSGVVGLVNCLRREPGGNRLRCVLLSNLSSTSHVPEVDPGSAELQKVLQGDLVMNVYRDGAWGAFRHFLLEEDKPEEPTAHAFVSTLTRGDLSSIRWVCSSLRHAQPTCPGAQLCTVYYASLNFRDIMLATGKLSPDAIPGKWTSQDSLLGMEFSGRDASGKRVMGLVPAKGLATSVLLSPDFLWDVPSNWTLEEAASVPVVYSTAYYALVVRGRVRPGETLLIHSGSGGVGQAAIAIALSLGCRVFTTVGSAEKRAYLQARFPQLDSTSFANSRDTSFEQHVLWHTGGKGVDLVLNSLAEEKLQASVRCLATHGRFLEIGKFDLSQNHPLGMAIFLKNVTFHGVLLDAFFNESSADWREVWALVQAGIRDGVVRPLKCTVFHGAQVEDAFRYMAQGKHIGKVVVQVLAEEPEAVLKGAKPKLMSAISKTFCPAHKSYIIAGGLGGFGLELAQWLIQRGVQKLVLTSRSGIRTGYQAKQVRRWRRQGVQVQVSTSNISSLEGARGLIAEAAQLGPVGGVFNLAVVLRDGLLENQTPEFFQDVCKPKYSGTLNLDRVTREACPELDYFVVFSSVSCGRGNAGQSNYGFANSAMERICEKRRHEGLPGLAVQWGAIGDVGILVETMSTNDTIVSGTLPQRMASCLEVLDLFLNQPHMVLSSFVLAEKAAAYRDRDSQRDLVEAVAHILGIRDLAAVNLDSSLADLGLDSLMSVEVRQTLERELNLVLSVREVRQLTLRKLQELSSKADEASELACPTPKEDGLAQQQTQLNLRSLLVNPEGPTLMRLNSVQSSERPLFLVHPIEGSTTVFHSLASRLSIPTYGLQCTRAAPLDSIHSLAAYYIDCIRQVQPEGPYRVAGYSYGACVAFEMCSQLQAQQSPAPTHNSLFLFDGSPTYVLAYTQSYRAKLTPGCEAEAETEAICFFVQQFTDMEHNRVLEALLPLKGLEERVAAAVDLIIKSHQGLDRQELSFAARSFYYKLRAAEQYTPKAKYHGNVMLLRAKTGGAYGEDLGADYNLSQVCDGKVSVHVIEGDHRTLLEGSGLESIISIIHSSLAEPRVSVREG

Compound | FAS (IC50) (purified human FAS) | IC50 (purified human FAS) [µM] | IC50 [1] [µg/mL]
CCCCCCCCNC(=O)c1cc(O)c(C(=O)OC)s1 | Neg |  | 47.5 (≈ 152 µM)
C=CCNC(=O)c1cc(O)c(C(=O)OC)s1 | Neg |  | > 80
CCCCCCCCNNC(=O)c1cc(O)c(C(=O)OC)s1 | Neg |  | 73.3 (≈ 223 µM)
COC(=O)c1sc(C(=O)NNc2ccc(Cl)cc2)cc1O |  | 230 | > 80

Now from value to molecule, other results behind:

FAS (IC50) (purified human FAS) | IC50 (purified human FAS) [µM] | Compound | IC50 [1] [µg/mL]
Neg |  | COC(=O)c1sc(C(=O)O)cc1O | > 80
Neg |  | CCCCCCCCNC(=O)c1cc(O)cs1 | 9.9 (≈ 38.8 µM)
